This is an account of results in publication PMC5575474, “Structure‐Enabled Discovery of a Stapled Peptide Inhibitor to Target the Oncogenic Transcriptional Repressor TLE1” (Chemistry (Weinheim an Der Bergstrasse, Germany), 2017).

Like-named read-outs stand apart in the source and are kept apart here. No end group written: not given here.

The target in assay [1] is T1, human TLE1 443-770 (TLE1 WD40 domain) (Homo sapiens, UniProt Q04724).
T1 construct: the TLE1 WD40 domain (TLE1 residues 443–770); His6 (N, cleaved yes); made in house; host or cells: Sf9 insect cells (baculovirus, pFastBacHTb)
Description: Thermal shift assay (TSA, ΔTm). It counts as binding. The settings on record: 6 μM human TLE1 443-770, 25 mM Tris pH7.5, 125 mM NaCl, 1 mM DTT, 0.0002% Tween20, 3x SYPRO Orange, 10 °C to 95 °C, 0.5 °/min, mean of triplicate. Here is the method: (§1) We next investigated the binding of this macrocycle, as well as acyclic MWRPW and FWRPW peptides, to TLE1. We used two orthogonal binding assays, the thermal shift assay10 and isothermal titration calorimetry (ITC),11 to test binding of 18 and the linear peptides to the TLE1 WD40 domain (TLE1 residues 443–770).
Figure 2 ΔT m plot of peptide–hTLE1 443–770 interactions in thermal shift experiments. All measurements were carried out in triplicate and the points are reported as mean+standard deviation (SD). […]
(§2) Cloning, Expression and Purification of humanTLE1 443- 770.
(§3) The construct encoding the sequence for human TLE1 443- 770 was generated ac c or ding Laurence Pearl’s laboratory procedure. Brief ly, the C-terminal region of human TLE1 (GenBank accession number M99435) encoding amino acids 443– 770 was PCR amplif ied and cloned into pFastBacHTb (GIBCO) in-frame with the N-terminal His6 tag sequence.
(§4) Starting from this construct we generated recombinant baculovirus using the Bac-to-Bac® Baculovirus Expression System (Thermo Fisher Scientif ic). For protein production, Sf9 insect cells were grown in sf -900 II SFM media (Thermo Fisher Scientific) to a cell density of around 2 × 10^6 cells per milliliter and inf ected with 20 μL of virus per 107cells. Inf ected cell cultures were harvested 3 days post-inf ection.
(§5) Cell pellets were resuspended in 6 volumes of lysis buffer (50 mM Tris pH 7.5, 500 mM NaCl, 1 mM MgCl) containing 1× complete EDTA-free protease inhibitors and 25 U/mL benzonase nuclease. The resuspended cells were lysed by sonication. Following […]
(§6) centrifugation, the supernatant was purified over 2x HiTrap talon crude columns (Cobalt - IMAC, GE). Columns were washed with 10m M Imidazole and then the protein was eluted in […]
(§7) The Talon eluate was incubated overnight at 4 °C with TEV protease to cleave the 6xHis tag and then re- loaded on talon column: the unbound wash contains the cleaved hTLE1 443- […]
(§8) The protein was subsequently purif ied over a Superdex 75 16/60 column that was equilibrated in 50 mM Hepes pH 7.5 + 250 mM naCl + 1 mM TCEP.
(§9) Selected f ractions were pooled, concentrated to 8 mg/mL and stored at - 80 °C. The protein was stable in these conditions f or up to three months.
(§10) Protein concentration was measured using an ND-1000 UV spectrophotometer (Nanodrop Technologies Inc., DE., USA). […]
1-2 days at 20 ◦C. Some crystals were transf erred to hanging drop (vapour diffusion) plates with the wells containing precipitant solution (PEG 8000 (22%), 100mM Na cacodylate, 100 mM Ca(OAc)2) and the drops containing the same precipitant solution supplemented with 1.0 or 2.5 mM peptide and a resultant final DMSO concentration of 1.0% or 2.5%, respectively. These crystals were soaked for around 5 h at 20 °C. Apo or peptide- s oak ed crystals were harvested, briefly transferred to cryprotectant (either paratone- N or a buffer containing ethylene glycol (40%), PEG 8000 […], 100 mM sodium cacodylate, 100 m M Ca(OAc)2) and f lash frozen in liquid nitrogen.
X-Ray data we r e collected at the Diamond Light Source, Oxford, UK on beamline I04.
Crystals belonged to the space group P2 1 and diffracted to between 1.6 and 2.9 Å. Dat a we r e integrated and merged using MOSFLM[4a,b] and AI MLESS.[4c] The structures were solved by molecular replacement using PHASER, [5] with either 2CE9 or our refined apo structure as the molecular replacement model with ligands and water removed. T he structures were manually rebuilt in COOT [6] and refined with BUSTER[7] in iterative cycles.
Ligand restraints f or the constrained peptide were generated with Grade[8] and Mogul.[9] T he quality of the structures was assessed with MOLPROBITY.[10]
Linear, unmodified peptides FW RPW and MWRPW were purchased from Cambridge Peptides as lyophilized powder. The peptides were then reconstituted in 1:1 mixture of DMSO and H2O as 10 mM stocks and stored at -80 °C. […]

Assay [2] has as its target T1, human TLE1 443-770 (TLE1 WD40 domain). Description: Isothermal titration calorimetry (ITC), peptide–TLE1 binding. As to conditions: for Kd / affinity relative to unconstrained (acyclic) peptide: cyclic vs acyclic FWRPW.
Text: as §1
This was initially more pronounced for FWRPW and 18, but also recognisable for the MWRPW peptide (see Figure S1 in the Supporting Information). We repeated the MWRPW titration at slightly higher protein and peptide concentrations to achieve a higher enthalpy signal, and therefore, better resolution of the titration event. Under these conditions, we also observed a clear biphasic curve (Figure 3). The biphasic curves are indicative of two binding events and we calculated the thermodynamic data for both (Table 2).
Figure 3 Top: ITC measurements of peptide–TLE1 binding interactions. Data fitting to a two‐site independent binding model are shown; integrated heats are shown in the inset. Bottom: Histograms showing ΔG, ΔH, and −TΔS. The thermodynamic values are also presented in Table 1. a) MWRPW–TLE1 binding, n=1. Experiment performed with TLE1 (40 μM) and MWRPW peptide (420 μM). b) FWRPW–TLE1 binding, n=2. Experiment performed with TLE1 (30 μM), FWRPW peptide (240 μM), and then repeated with TLE1 (24 μM), FWRPW peptide (180 μM). Histograms represent averaged values; error bars denote SD. c) 18–TLE1 binding, n=2. Experiment performed with TLE1 (30 μM), 18 (200 μM) and then repeated with TLE1 (30 μM), 18 (180 μM). Histograms represent averaged values; error bars denote SD. […]
as §2, §3, §4, §5, §6, §7, §8, §9, §10
1-2 days at 20 ◦C. Some crystals were transf erred to hanging drop (vapour diffusion) plates with the wells containing precipitant solution (PEG 8000 (22%), 100mM Na cacodylate, 100 mM Ca(OAc)2) and the drops containing the same precipitant solution supplemented with 1.0 or 2.5 mM peptide and a resultant final DMSO concentration of 1.0% or 2.5%, respectively. These crystals were soaked for around 5 h at 20 °C. Apo or peptide- s oak ed crystals were harvested, briefly transferred to cryprotectant (either paratone- N or a buffer […]

The target is the same in assay [3]. Described as above. As to conditions: one-site independent binding model; TLE1 30 μM, peptide 350 μM; 25 °C, 50 mM Hepes pH7.5, 250 mM NaCl; mean ± SD, n = 2 (Table S1).
A further assay deals with TLE1 WDR domain. As to conditions: cited from earlier work. An excerpt: As discussed in more detail below, the bioactive conformation of this peptide is characterised by a compactly folded core formed by the central three amino acids. This compact core engages in extensive interactions with the WDR1 domain and positions key amino acid side chains such that they can form add ...

Where [4] appears, read: first binding event, two-site independent binding model, 25 °C, pH7.5, MWRPW n=1, FWRPW and 18 n=2, mean ± SD.
Setting [5] is: second binding event, two-site independent binding model, 25 °C, pH7.5, MWRPW n=1, FWRPW and 18 n=2, mean ± SD.

T1 sequence (Q04724 443-770): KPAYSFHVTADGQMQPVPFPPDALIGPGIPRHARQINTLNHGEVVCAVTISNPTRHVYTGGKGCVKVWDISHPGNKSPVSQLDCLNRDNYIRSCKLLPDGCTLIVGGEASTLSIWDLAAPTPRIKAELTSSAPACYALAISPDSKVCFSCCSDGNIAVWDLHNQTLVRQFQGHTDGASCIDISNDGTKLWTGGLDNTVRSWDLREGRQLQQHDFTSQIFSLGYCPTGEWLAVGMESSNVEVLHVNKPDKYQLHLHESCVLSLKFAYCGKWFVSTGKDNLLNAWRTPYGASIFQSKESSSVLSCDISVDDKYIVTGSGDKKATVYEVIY

For `N=C(N)NCCC[C@@H]1NC(=O)[C@@H](NC(=O)[C@@H](N)Cc2ccccc2)Cc2cn(c3ccccc23)CCCC[C@@]2(C(=O)N[C@@H](Cc3c[nH]c4ccccc34)C(=O)O)CCCN2C1=O` [compound 18], the ΔTm (in general, the shift of the melting midpoint relative to a reference) in assay [1] (peptide 100 μM) was 8.4 °C; in assay [1] (peptide 200 μM), 7.5 °C. Also, the “Kd / affinity relative to unconstrained (acyclic) peptide” value in assay [2] is on record as “approximately six‐fold lower affinity than that of the acyclic peptide”; in assay [2] (listed as cycFWRPW), “approximately five‐fold higher”. The Kd in assay [2] (second binding event, two-site independent binding model, 25 °C, 50 mM Hepes pH7.5, 250 mM NaCl, 1 mM TCEP, 0.05% Tween 20, MWRPW n=1 (TLE1 40 μM, peptide 420 μM), FWRPW n=2 (TLE1 30/24 μM, peptide 240/180 μM), 18 n=2 (TLE1 30 μM, peptide 200/180 μM), read-out: Kd2) turned out to be 522 ± 39.6 nM.

For “FWRPW [linear, unmodified peptide purchased from Cambridge Peptides; acyclic counterpart of 18]”, the ΔTm in assay [1] (peptide 100 μM) was determined as 9.4 °C. The ΔTm in assay [1] (peptide 200 μM) was 10.1 °C. For the same molecule, the N1 in assay [2] (first binding event, two-site independent binding model, 25 °C, 50 mM Hepes pH7.5, 250 mM NaCl, 1 mM TCEP, 0.05% Tween 20, MWRPW n=1 (TLE1 40 μM, peptide 420 μM), FWRPW n=2 (TLE1 30/24 μM, peptide 240/180 μM), 18 n=2 (TLE1 30 μM, peptide 200/180 μM)) was 0.18±0.002. For the same molecule, in assay [2] (setting [4]), the ΔH1 was -20.5 ± 3.7 kcal/mol and the “−TΔS1” value is 9.2 ± 3.8 kcal/mol. Besides, the “fold more potent binding than MWRPW” value in assay [2] (second binding event (Kd2)) is about 10 fold. The molecule also displayed an N2 in assay [2] (second binding event, two-site independent binding model, 25 °C, 50 mM Hepes pH7.5, 250 mM NaCl, 1 mM TCEP, 0.05% Tween 20, MWRPW n=1, FWRPW and 18 n=2) of 0.7±0.004. In assay [2] (setting [5]), the ΔH2 was -14.6 ± 0 kcal/mol and the “−TΔS2” value amounted to 4.6 ± 0.2 kcal/mol.

In the case of MWRPW [MWRPW, reference compound], the ΔTm in assay [1] (peptide 100 μM) worked out at 6.3 °C; in assay [1] (peptide 200 μM) it was 6.9 °C. Besides, in assay [3], the Kd turned out to be 704 ± 14 nM.

For “SMWRPW [acyclic design template (pdb code 2CE9)]”, at TLE1 WDR domain, the Kd is 1000 nM.
